Test results as given in US11739098B2 (BRISTOL-MYERS SQUIBB COMPANY, priority 2017, dated 2023).

Legend:
Type in all cases: cell-based
[1] = target: T1, human TLR7 (Homo sapiens, UniProt Q9NYK1); assay: TLR7 inhibition reporter assay (HEK-Blue cells, SEAP reporter, gardiquimod stimulation); settings: HEK-Blue cells overexpressing human TLR7, SEAP reporter, gardiquimod 7.5 μM
T1 construct: host or cells: HEK-Blue cells (HEK293-derived reporter line)
T1 sequence (Q9NYK1 27-1049): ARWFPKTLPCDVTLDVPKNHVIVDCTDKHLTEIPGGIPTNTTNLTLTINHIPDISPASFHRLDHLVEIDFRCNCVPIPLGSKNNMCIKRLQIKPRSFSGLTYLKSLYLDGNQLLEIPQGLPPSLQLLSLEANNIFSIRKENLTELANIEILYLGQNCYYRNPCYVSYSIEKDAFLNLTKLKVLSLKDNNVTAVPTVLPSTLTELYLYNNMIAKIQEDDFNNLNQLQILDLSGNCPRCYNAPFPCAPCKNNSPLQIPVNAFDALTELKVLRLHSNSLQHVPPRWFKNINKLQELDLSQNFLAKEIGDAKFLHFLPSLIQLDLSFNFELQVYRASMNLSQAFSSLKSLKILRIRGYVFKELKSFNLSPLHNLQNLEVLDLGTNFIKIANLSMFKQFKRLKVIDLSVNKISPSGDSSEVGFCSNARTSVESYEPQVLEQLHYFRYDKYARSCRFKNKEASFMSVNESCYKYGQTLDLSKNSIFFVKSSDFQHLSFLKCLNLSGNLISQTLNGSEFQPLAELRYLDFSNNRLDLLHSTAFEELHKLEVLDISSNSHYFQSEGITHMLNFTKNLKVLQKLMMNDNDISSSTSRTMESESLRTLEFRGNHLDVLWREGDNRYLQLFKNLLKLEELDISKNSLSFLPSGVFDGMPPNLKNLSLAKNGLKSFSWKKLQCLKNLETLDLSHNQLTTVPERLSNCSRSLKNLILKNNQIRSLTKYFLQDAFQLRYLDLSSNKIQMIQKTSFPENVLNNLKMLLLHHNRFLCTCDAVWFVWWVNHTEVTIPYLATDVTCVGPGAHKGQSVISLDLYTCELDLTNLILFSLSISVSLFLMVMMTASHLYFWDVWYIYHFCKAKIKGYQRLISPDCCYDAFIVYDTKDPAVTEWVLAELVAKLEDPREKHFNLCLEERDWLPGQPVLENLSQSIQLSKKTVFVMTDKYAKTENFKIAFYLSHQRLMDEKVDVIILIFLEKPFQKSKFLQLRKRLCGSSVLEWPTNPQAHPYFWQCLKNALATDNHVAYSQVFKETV
Outline: (§1)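 HEK-Blue cells overexpressing the receptor, with NF-κB/AP-1-driven SEAP, were pre-treated 30 min at room temperature with compound (0.05 nM–50 μM), then stimulated with gardiquimod 7.5 μM (TLR7), R848 15.9 μM (TLR8) or ODN2006 5 nM (TLR9). SEAP was read after 22 h at 37 °C as percent inhibition.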

[2] = target: T2, human TLR8 (Homo sapiens, UniProt Q9NR97); assay: TLR8 inhibition reporter assay (HEK-Blue cells, SEAP reporter, R848 stimulation); settings: HEK-Blue cells overexpressing human TLR8, SEAP reporter, R848 15.9 μM
T2 construct: host or cells: HEK-Blue cells (HEK293-derived reporter line)
T2 sequence (Q9NR97 27-1041): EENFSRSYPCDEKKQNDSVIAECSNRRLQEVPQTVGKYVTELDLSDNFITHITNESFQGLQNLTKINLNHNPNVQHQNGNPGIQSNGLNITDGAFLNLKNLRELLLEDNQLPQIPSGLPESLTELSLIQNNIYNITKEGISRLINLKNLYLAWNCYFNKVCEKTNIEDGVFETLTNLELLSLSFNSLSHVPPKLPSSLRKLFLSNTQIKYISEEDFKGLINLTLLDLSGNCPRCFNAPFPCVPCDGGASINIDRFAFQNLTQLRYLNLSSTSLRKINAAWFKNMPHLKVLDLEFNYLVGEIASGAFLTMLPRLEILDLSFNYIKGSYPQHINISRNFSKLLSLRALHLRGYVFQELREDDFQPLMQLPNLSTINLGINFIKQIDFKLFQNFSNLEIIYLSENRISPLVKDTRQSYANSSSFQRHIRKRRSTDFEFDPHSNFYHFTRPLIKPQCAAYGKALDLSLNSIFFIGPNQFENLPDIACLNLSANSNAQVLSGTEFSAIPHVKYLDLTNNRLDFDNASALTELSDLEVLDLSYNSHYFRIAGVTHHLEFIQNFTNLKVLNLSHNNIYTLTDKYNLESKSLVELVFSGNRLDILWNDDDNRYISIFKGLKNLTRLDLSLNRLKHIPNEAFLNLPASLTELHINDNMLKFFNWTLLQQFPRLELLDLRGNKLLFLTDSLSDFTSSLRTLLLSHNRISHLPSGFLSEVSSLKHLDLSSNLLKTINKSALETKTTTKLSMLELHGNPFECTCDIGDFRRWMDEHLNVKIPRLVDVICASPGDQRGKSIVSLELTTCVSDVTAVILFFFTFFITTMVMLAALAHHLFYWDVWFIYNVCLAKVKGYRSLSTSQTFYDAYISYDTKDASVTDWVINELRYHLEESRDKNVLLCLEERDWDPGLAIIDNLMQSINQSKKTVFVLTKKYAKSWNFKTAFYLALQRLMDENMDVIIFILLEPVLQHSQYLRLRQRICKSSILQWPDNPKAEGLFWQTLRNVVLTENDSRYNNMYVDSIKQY
Outline: as §1

[3] = target: T3, human TLR9 (Homo sapiens, UniProt Q9NR96); assay: TLR9 inhibition reporter assay (HEK-Blue cells, SEAP reporter, ODN2006 stimulation); settings: HEK-Blue cells overexpressing human TLR9, SEAP reporter, ODN2006 5 nM
T3 construct: host or cells: HEK-Blue cells (HEK293-derived reporter line)
T3 sequence (Q9NR96 26-1032): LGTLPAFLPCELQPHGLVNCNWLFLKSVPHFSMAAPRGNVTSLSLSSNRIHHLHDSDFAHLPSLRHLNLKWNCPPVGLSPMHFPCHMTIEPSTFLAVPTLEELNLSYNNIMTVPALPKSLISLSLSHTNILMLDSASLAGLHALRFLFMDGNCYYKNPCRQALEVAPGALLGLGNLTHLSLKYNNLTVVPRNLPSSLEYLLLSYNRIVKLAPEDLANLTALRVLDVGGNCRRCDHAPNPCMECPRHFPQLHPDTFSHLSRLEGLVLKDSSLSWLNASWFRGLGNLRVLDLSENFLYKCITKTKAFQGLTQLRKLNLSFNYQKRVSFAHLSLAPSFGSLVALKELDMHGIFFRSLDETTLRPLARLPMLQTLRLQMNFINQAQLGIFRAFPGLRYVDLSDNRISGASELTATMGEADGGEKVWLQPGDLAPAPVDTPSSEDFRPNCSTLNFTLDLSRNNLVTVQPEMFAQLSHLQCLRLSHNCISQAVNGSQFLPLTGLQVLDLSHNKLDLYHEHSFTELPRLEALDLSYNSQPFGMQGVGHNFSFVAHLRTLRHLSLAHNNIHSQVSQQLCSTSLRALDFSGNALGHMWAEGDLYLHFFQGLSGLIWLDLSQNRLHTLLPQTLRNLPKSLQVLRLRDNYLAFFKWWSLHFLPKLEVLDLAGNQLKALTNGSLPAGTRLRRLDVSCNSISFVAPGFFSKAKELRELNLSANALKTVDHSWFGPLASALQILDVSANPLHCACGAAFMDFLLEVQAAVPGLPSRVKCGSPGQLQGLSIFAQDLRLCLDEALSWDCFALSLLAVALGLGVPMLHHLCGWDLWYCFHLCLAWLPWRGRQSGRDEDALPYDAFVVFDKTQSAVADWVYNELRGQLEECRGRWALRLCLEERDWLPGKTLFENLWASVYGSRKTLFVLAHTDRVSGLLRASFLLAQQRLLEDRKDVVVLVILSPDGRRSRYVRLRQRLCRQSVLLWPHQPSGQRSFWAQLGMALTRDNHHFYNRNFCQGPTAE
Outline: as §1

With `CC(C)c1c(-c2ccnc3[nH]ncc23)[nH]c2ccc(C3CCN(C(=O)CN(C)C)CC3)cc12` [Example 449, 2-(dimethylamino)-1-(4-(3-isopropyl-2-(1H-pyrazolo[3,4-b]pyridin-4-yl)-1H-indol-5-yl)piperidin-1-yl)ethanone] the IC50 [1] was under 0.1 µM, the IC50 [2] was under 0.1 µM and the IC50 [3] was 1 to 50 µM.

With `CCCN1CCC(c2ccc3[nH]c(-c4cc(C)c5ncn(C)c5c4)c(C(C)C)c3c2)CC1` [Example 954, 6-(3-isopropyl-5-(1-propylpiperidin-4-yl)-1H-indol-2-yl)-1,4-dimethyl-1H-benzo[d]imidazole] the IC50 [1] was under 0.1 µM, the IC50 [2] was under 0.1 µM and the IC50 [3] was 0.1 to 1 µM.

For `CNCCN1CCC(c2ccc3[nH]c(-c4ccc5ncnn5n4)c(C)c3c2)CC1` [Example 651, 2-(4-(2-([1,2,4]triazolo[1,5-b]pyridazin-6-yl)-3-methyl-1H-indol-5-yl)piperidin-1-yl)-N-methylethan-1-amine], the IC50 [1] was under 0.1 µM, the IC50 [2] was under 0.1 µM and the IC50 [3] was under 0.1 µM.

In the case of `Cc1c(-c2[nH]c3ccc(C4CCN(CC(=O)N(C)C)CC4)cc3c2C(C)C)ccc2nnnn12` [Example 308, 2-(4-(3-isopropyl-2-(5-methyltetrazolo[1,5-a]pyridin-6-yl)-1H-indol-5-yl)piperidin-1-yl)-N,N-dimethylacetamide], the IC50 [1] is reported as 0.1 to 1 µM, the IC50 [2] is reported as under 0.1 µM and the IC50 [3] is reported as 1 to 50 µM.

In the case of `CNC(=O)CN1CCC(c2ccc3[nH]c(-c4ccn5ccnc5c4)c(CC(F)F)c3c2)CC1` [Example 446, 2-(4-(3-(2,2-difluoroethyl)-2-(imidazo[1,2-a]pyridin-7-yl)-1H-indol-5-yl)piperidin-1-yl)-N-methylacetamide], the IC50 [1] is reported as under 0.1 µM, the IC50 [2] is reported as 0.1 to 1 µM and the IC50 [3] is reported as 0.1 to 1 µM.

`CC(C)c1c(-c2ccnc3[nH]ncc23)[nH]c2ccc(C3CCNCC3)cc12` [Example 230, 4-(3-isopropyl-5-(piperidin-4-yl)-1H-indol-2-yl)-1H-pyrazolo[3,4-b]pyridine] was tested, and the IC50 [1] was under 0.1 µM, the IC50 [2] was under 0.1 µM and the IC50 [3] was 0.1 to 1 µM.

`CC(C)c1c(-c2ccc3nccnc3c2)[nH]c2ccc(C3CCNCC3)cc12` [Example 165, 6-(3-isopropyl-5-(piperidin-4-yl)-1H-indol-2-yl)quinoxaline] gave an IC50 [1] of under 0.1 µM, an IC50 [2] of 0.1 to 1 µM and an IC50 [3] of 1 to 50 µM.

With `Cc1cc(-c2[nH]c3ccc(C4CCN(Cc5ccn(C)n5)CC4)cc3c2C(C)C)cn2nnnc12` [Example 884, 6-(3-isopropyl-5-(1-((1-methyl-1H-pyrazol-3-yl)methyl)piperidin-4-yl)-1H-indol-2-yl)-8-methyltetrazolo[1,5-a]pyridine] the IC50 [1] was under 0.1 µM, the IC50 [2] was under 0.1 µM and the IC50 [3] was 1 to 50 µM.

With `CC(C)c1c(-c2ccnc3[nH]ncc23)[nH]c2ccc(C3CCN(C4CCNCC4F)CC3)cc12` (stereo not drawn) [Example 827, 4-(5-(3′-fluoro-[1,4′-bipiperidin]-4-yl)-3-isopropyl-1H-indol-2-yl)-1H-pyrazolo[3,4-b]pyridine] the IC50 [1] was under 0.1 µM, the IC50 [2] was under 0.1 µM and the IC50 [3] was 0.1 to 1 µM.

With `COc1cc(-c2[nH]c3ccc(C4CCN(CCS(C)(=O)=O)CC4)cc3c2C(C)C)cc2ncnn12` [Example 797, 7-(3-isopropyl-5-(1-(2-(methylsulfonyl)ethyl)piperidin-4-yl)-1H-indol-2-yl)-5-methoxy-[1,2,4]triazolo[1,5-a]pyridine] the IC50 [1] was under 0.1 µM, the IC50 [2] was under 0.1 µM and the IC50 [3] was 1 to 50 µM.

For `CC(C)c1c(-c2ccn3nncc3c2)[nH]c2ccc(C3CCNCC3)cc12` [Example 81, 5-(3-isopropyl-5-(piperidin-4-yl)-1H-indol-2-yl)-[1,2,3]triazolo[1,5-a]pyridine], the IC50 [1] was under 0.1 µM, the IC50 [2] was 0.1 to 1 µM and the IC50 [3] was 1 to 50 µM.

With `CC(C)c1c(-c2ccnc3[nH]ncc23)[nH]c2ccc(C3CCN(C4CCN(C(C)C)CC4)CC3)cc12` [Example 821, 4-(3-isopropyl-5-(1′-isopropyl-[1,4′-bipiperidin]-4-yl)-1H-indol-2-yl)-1H-pyrazolo[3,4-b]pyridine] the IC50 [1] was under 0.1 µM, the IC50 [2] was under 0.1 µM and the IC50 [3] was under 0.1 µM.

For `Cc1cn2cc(-c3[nH]c4ccc(C5CCN(Cc6c[nH]c(C)n6)CC5)cc4c3C(C)C)ccc2n1` [Example 937, 6-(3-isopropyl-5-(1-((2-methyl-1H-imidazol-4-yl)methyl)piperidin-4-yl)-1H-indol-2-yl)-2-methylimidazo[1,2-a]pyridine], the IC50 [1] was under 0.1 µM, the IC50 [2] was 0.1 to 1 µM and the IC50 [3] was under 0.1 µM.

With `CC(C)c1c(-c2cnc3ncccn23)[nH]c2ccc(C3CCNCC3)cc12` [Example 64, 3-(3-isopropyl-5-(piperidin-4-yl)-1H-indol-2-yl)imidazo[1,2-a]pyrimidine] the IC50 [1] was under 0.1 µM, the IC50 [2] was under 0.1 µM and the IC50 [3] was 0.1 to 1 µM.

`CCc1c(-c2ccc3ncc(C#N)n3n2)[nH]c2ccc(C3CCNCC3)cc12` [Example 102, 6-(3-ethyl-5-(piperidin-4-yl)-1H-indol-2-yl)imidazo [1,2-b]pyridazine-3-carbonitrile] showed an IC50 [1] of 1 to 50 µM, an IC50 [2] of 1 to 50 µM and an IC50 [3] of 1 to 50 µM.
